Results on eleven compounds are retold here after ChEMBL document CHEMBL1201862, “PubChem BioAssay data set” (2004).

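Step 1: Grow cells in 96-well plates. Step 2: Expose to compound for 48 hours at 5 concentrations. Step 3: Interpolate endpoints linearly; if unreached, use highest concentration. Abbreviation: GI50, concentration required for 50% inhibition of growth.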 Active and inactive are the calls of the source. No stated cut-off is given here; in the data, active = GI50 up to about 1.1 µM and inactive = higher.

Among the test systems are OVCAR-5; SNB-75; EKVX; SF-295; UACC-257; T47D; HOP-92; OVCAR-3; NCI/ADR-RES; OVCAR-8; MOLT-4; MDA-MB-435; UACC-62; HCT-116; HCC 2998; BT-549; RPMI-8226.
Experiment in all cases: NCI-60 cell line screen, 48 h

For `O=C(c1ccc(Cl)c(Cl)c1)N(C(=O)N1CCN(c2ccccc2)CC1)S(=O)(=O)c1ccccc1`, the GI50 in the experiment with OVCAR-5 was 26.9 µM (inactive); in the experiment on SNB-75, 91.4 µM (inactive); in the experiment on EKVX, > 100 µM (inactive); in the experiment on SF-295, 49.4 µM (inactive); with UACC-257 it was > 100 µM (inactive); in the experiment with T47D it was > 100 µM (inactive). Further, the GI50 is 20.9 µM (inactive) with HOP-92; 29.6 µM (inactive) in the experiment on OVCAR-3; 34 µM (inactive) with NCI/ADR-RES; 26.9 µM (inactive) in the experiment with OVCAR-8; 12.9 µM (inactive) with MOLT-4; 46.7 µM (inactive) with MDA-MB-435. In addition, the GI50 in the experiment on UACC-62 is 32.8 µM (inactive); in the experiment on HCT-116, 29.8 µM (inactive); in the experiment on HCC 2998, > 100 µM (inactive); in the experiment on BT-549, 40.6 µM (inactive); in the experiment on RPMI-8226, 32.6 µM (inactive).

For `CCCCCCc1cc2cc(-c3cn4ccccc4n3)c(=O)oc2cc1O`, the GI50 in the experiment with OVCAR-5 is 21.8 µM (inactive); with SNB-75 it was 3.14 µM (inactive); in the experiment on EKVX, 18.4 µM (inactive); with SF-295 it was 15.1 µM (inactive); in the experiment on UACC-257, 18.1 µM (inactive); with T47D, 19.2 µM (inactive). The GI50 in the experiment with HOP-92 was 15.5 µM (inactive); with OVCAR-3 it was 4.38 µM (inactive); with NCI/ADR-RES it was 5.26 µM (inactive); in the experiment with OVCAR-8, 6.3 µM (inactive); in the experiment with MOLT-4, 7.91 µM (inactive); in the experiment with MDA-MB-435, 5.24 µM (inactive). Besides, the GI50 in the experiment with UACC-62 is 8.17 µM (inactive); with HCT-116, 4.55 µM (inactive); in the experiment on HCC 2998, 18.4 µM (inactive); with BT-549 it was 10.1 µM (inactive); in the experiment with RPMI-8226 it was 3.68 µM (inactive).

Turning to `CN1CCN(c2ccc3nc(C4=C(O)C(=O)c5c(nc(CO)n5C)C4=O)[nH]c3n2)CC1`, the GI50 was > 100 µM (inactive) in the experiment with OVCAR-5; 24.6 µM (inactive) with SNB-75; > 100 µM (inactive) in the experiment with EKVX; > 100 µM (inactive) in the experiment with SF-295; > 100 µM (inactive) with UACC-257; 61.4 µM (inactive) in the experiment with T47D. The GI50 was > 100 µM (inactive) with HOP-92; > 100 µM (inactive) with OVCAR-3; > 100 µM (inactive) in the experiment on NCI/ADR-RES; > 100 µM (inactive) in the experiment with OVCAR-8; 56.2 µM (inactive) in the experiment with MOLT-4; > 100 µM (inactive) with MDA-MB-435. For the same compound, the GI50 with UACC-62 was 74.3 µM (inactive); in the experiment on HCT-116, > 100 µM (inactive); in the experiment on HCC 2998, > 100 µM (inactive); in the experiment on BT-549 it was > 100 µM (inactive); in the experiment on RPMI-8226, 93.8 µM (inactive).

In the case of `COC(=O)C1=C(OC(=O)/C=C/c2ccccc2)C(C(=O)OC)[C@@]2(O)[C@@H](C(=O)OC)[C@H](C)C[C@@H]1[C@@H]2C(=O)OC` (some centres not stated), the GI50 in the experiment on OVCAR-5 was 11.7 µM (inactive); with SNB-75, 19.4 µM (inactive); with EKVX, 15.5 µM (inactive); in the experiment on SF-295 it was 19.9 µM (inactive); in the experiment with UACC-257, 20.1 µM (inactive); in the experiment with T47D, 24.5 µM (inactive). The GI50 with HOP-92 is 20.4 µM (inactive); with OVCAR-3, 19.9 µM (inactive); in the experiment on NCI/ADR-RES, 16.7 µM (inactive); in the experiment on OVCAR-8, 14.2 µM (inactive); with MOLT-4 it was > 100 µM (inactive); in the experiment on MDA-MB-435, 15.6 µM (inactive). For the same compound, the GI50 is 12.6 µM (inactive) with UACC-62; 24.1 µM (inactive) in the experiment on HCT-116; 19.4 µM (inactive) in the experiment on HCC 2998; 15.4 µM (inactive) with BT-549; 8.47 µM (inactive) in the experiment with RPMI-8226.

Turning to `C(/Cc1ccc2c(c1)OCO2)=N\N=C1NCCN1`, the GI50 with OVCAR-5 is 57.3 µM (inactive); in the experiment on SNB-75, 33.7 µM (inactive); in the experiment on EKVX, 61.2 µM (inactive); in the experiment with SF-295, 42.4 µM (inactive); in the experiment on UACC-257 it was > 100 µM (inactive); in the experiment with T47D it was 90.6 µM (inactive). The GI50 was 34.8 µM (inactive) with HOP-92; > 100 µM (inactive) with OVCAR-3; > 100 µM (inactive) in the experiment on NCI/ADR-RES; > 100 µM (inactive) with OVCAR-8; 52.6 µM (inactive) with MOLT-4; > 100 µM (inactive) with MDA-MB-435. Moreover, the GI50 with UACC-62 is > 100 µM (inactive); in the experiment with HCT-116, 58.9 µM (inactive); in the experiment with HCC 2998 it was 92.3 µM (inactive); with BT-549, 91.2 µM (inactive); in the experiment with RPMI-8226, 83.2 µM (inactive).

For the compound `CCCC(=O)Nc1cc(/C=C/C(=O)N2CC(CCl)c3c2cc(OC(C)=O)c2[nH]cc(C)c32)n(C)c1` (configuration not stated), the GI50 is 7.24e-05 µM (active) in the experiment with OVCAR-5; 5.77e-05 µM (active) in the experiment with SNB-75; 0.000108 µM (active) in the experiment with EKVX; 4.52e-05 µM (active) in the experiment on SF-295; 2.97e-05 µM (active) in the experiment with UACC-257; 6.3e-05 µM (active) in the experiment on T47D. Besides, the GI50 was 4.28e-05 µM (active) in the experiment with HOP-92; < 2.5e-05 µM (active) with OVCAR-3; 0.00024 µM (active) with NCI/ADR-RES; < 2.5e-05 µM (active) in the experiment with OVCAR-8; < 2.5e-05 µM (active) in the experiment with MOLT-4; 4.95e-05 µM (active) with MDA-MB-435. For the same compound, the GI50 with UACC-62 is < 2.5e-05 µM (active); in the experiment on HCT-116, < 2.5e-05 µM (active); with HCC 2998 it was < 2.5e-05 µM (active); in the experiment on BT-549 it was 8.09e-05 µM (active); in the experiment on RPMI-8226, 0.000171 µM (active).

Take `CCN(CC)CCC(=O)c1ccc(Cl)c(Cl)c1`: the GI50 in the experiment with OVCAR-5 was > 100 µM (inactive); with SNB-75, 27.7 µM (inactive); with EKVX, > 100 µM (inactive); in the experiment on SF-295 it was > 100 µM (inactive); in the experiment on UACC-257 it was 46.7 µM (inactive); in the experiment on T47D, 18.6 µM (inactive). Besides, the GI50 in the experiment with HOP-92 was 14.8 µM (inactive); with OVCAR-3, > 10 µM (inactive); in the experiment on NCI/ADR-RES, 34.1 µM (inactive); in the experiment on OVCAR-8 it was 37.2 µM (inactive); in the experiment with MOLT-4, 19.9 µM (inactive); with MDA-MB-435 it was 17.1 µM (inactive). For the same compound, the GI50 is 14.8 µM (inactive) in the experiment on UACC-62; 27.5 µM (inactive) with HCT-116; 43.6 µM (inactive) in the experiment with HCC 2998; 21.2 µM (inactive) with BT-549; 3.61 µM (inactive) with RPMI-8226.

For the compound `[O-]c1c2cc(-[n+]3c(-c4ccccc4)cc(-c4ccccc4)cc3-c3ccccc3)cc1CO[C@@H](c1ccccc1)[C@H](c1ccccc1)OCc1cccc(n1)CO[C@@H](c1ccccc1)[C@H](c1ccccc1)OC2`, the GI50 in the experiment on OVCAR-5 is 0.514 µM (active); with SNB-75, 0.0682 µM (active); in the experiment with EKVX it was 0.0838 µM (active); with SF-295 it was 0.102 µM (active); with UACC-257, 0.0803 µM (active); in the experiment with T47D it was 0.111 µM (active). The GI50 is 0.0322 µM (active) with HOP-92; 0.0299 µM (active) in the experiment on OVCAR-3; 1.97 µM (inactive) with NCI/ADR-RES; 0.0488 µM (active) in the experiment on OVCAR-8; 0.0526 µM (active) in the experiment with MOLT-4; 0.0501 µM (active) in the experiment with MDA-MB-435. The GI50 in the experiment on UACC-62 was 0.0931 µM (active); in the experiment with HCT-116, 0.0286 µM (active); with HCC 2998 it was 0.453 µM (active); in the experiment on BT-549, 0.057 µM (active); with RPMI-8226, 0.0135 µM (active).

Take `O=C(O)CNC(=O)CO/N=C1/C(=C2/C(=O)Nc3ccccc32)Nc2ccccc21`: the GI50 in the experiment with OVCAR-5 is > 100 µM (inactive); in the experiment on SNB-75 it was > 100 µM (inactive); in the experiment on EKVX it was 94.6 µM (inactive); in the experiment on SF-295 it was > 100 µM (inactive); with UACC-257 it was > 100 µM (inactive); with T47D, 56.9 µM (inactive). In addition, the GI50 with HOP-92 was > 100 µM (inactive); in the experiment with OVCAR-3, 42.2 µM (inactive); with NCI/ADR-RES it was > 100 µM (inactive); with OVCAR-8, > 100 µM (inactive); with MOLT-4 it was 70.3 µM (inactive); with MDA-MB-435, > 100 µM (inactive). For the same compound, the GI50 with UACC-62 is > 100 µM (inactive); with HCT-116, > 100 µM (inactive); with HCC 2998 it was 47 µM (inactive); in the experiment on BT-549 it was > 100 µM (inactive); in the experiment on RPMI-8226 it was > 100 µM (inactive).

For `CCCSC1=N/C(=C\c2ccco2)C(=O)N1`, the GI50 with OVCAR-5 was > 100 µM (inactive); in the experiment on SNB-75, 97.7 µM (inactive); in the experiment with EKVX it was 67.3 µM (inactive); in the experiment with SF-295, > 100 µM (inactive); with UACC-257, > 100 µM (inactive); in the experiment on T47D, 46.2 µM (inactive). Further, the GI50 in the experiment with HOP-92, in the experiment with OVCAR-3, with NCI/ADR-RES, in the experiment on OVCAR-8, in the experiment on MOLT-4 and in the experiment with MDA-MB-435 was > 100 µM (inactive) each time. Further, the GI50 in the experiment with UACC-62, in the experiment with HCT-116, with HCC 2998, with BT-549 and in the experiment with RPMI-8226 was > 100 µM (inactive) in each case.

`CC(=O)OCC1OC(O[C@@H]2c3c(O)c4c(c(O)c3C3=C(NN(c5ccc([N+](=O)[O-])cc5[N+](=O)[O-])[Se]3=O)[C@@]2(C)O)C(=O)c2ccccc2C4=O)C(OC(C)=O)C(OC(C)=O)C1OC(C)=O` (some centres not stated): the GI50 is 0.51 µM (active) in the experiment with OVCAR-5; 0.394 µM (active) with SNB-75; 0.23 µM (active) in the experiment with EKVX; 0.21 µM (active) in the experiment with SF-295; 0.376 µM (active) in the experiment on UACC-257; 0.286 µM (active) with T47D. Also, the GI50 is 0.451 µM (active) with HOP-92; 0.158 µM (active) in the experiment on OVCAR-3; 0.336 µM (active) in the experiment with NCI/ADR-RES; 0.191 µM (active) in the experiment on OVCAR-8; 0.0345 µM (active) with MOLT-4; 0.145 µM (active) in the experiment on MDA-MB-435. For the same compound, the GI50 with UACC-62 is 0.27 µM (active); in the experiment on HCT-116 it was 0.141 µM (active); in the experiment with HCC 2998, 0.228 µM (active); with BT-549 it was 0.489 µM (active); in the experiment with RPMI-8226, 0.16 µM (active).
